Results reported in US7476670B2, “Purine derivatives, method for preparing, pharmaceutical compositions and novel use” (Aventis Pharma S.A., priority 2003, dated 2009).
Counter-ions that a name gives are not always drawn. Like-named read-outs stand apart in the source and are kept apart here.

What was measured:
Format in all cases: biochemical
CaCiv1 = CaCiv1 (Candida albicans, UniProt A0A1D8PH53); experiment: Assay for inhibition of CIV-CDK (CIV1) activity
Text: 1) Assay for Inhibition of CIV-CDK (CIV1) Activity
a) Preparation of the Reagents

JNK3 kinase = JNK3 kinase (Homo sapiens, UniProt P53779); experiment: Assay for inhibition of JNK3 activity; details: fluorescence polarization, ATP 6 μM; read-out: IC50s expressed as micromolar
JNK3 kinase, sequence (P53779 whole entry): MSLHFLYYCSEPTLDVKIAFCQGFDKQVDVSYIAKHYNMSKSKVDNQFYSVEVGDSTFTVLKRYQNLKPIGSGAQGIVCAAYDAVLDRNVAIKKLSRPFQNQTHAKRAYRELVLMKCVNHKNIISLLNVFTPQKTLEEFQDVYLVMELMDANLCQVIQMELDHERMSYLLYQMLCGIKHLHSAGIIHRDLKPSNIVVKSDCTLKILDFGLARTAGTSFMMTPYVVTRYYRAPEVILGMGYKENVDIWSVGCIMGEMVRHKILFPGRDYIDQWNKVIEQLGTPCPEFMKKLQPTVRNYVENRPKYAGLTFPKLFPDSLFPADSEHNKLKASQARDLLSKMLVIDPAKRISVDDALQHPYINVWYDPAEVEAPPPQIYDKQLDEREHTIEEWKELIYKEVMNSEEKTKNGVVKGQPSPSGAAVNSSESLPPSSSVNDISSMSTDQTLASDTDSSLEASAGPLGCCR
Description: The inhibition of the kinase activity is determined by fluorescence polarization, the JNK3 kinase phosphorylates a peptide detected by adding an anti-phosphopeptide antibody coupled to a fluorescent label.
The assay is carried out in a final volume of 30 μl; all the reagents are prepared in a buffer: • 50 mM HEPES pH 7.5 • 0.03% triton X100 • 10 mM MgCl2 • 5% Glycerol • 1 mM DTT 10 μl of the 10-times concentrated inhibitor are added to 5 μl of enzyme (40 ng final concentration), and 5 μl of incubation buffer containing 100 ng of substrate and 10 μl of ATP (6 μM final concentration) are added.

PLK1 = PLK1 (Homo sapiens, UniProt P53350); experiment: Assay for inhibition of PLK1 activity; details: [33P]ATP; read-out: IC50s expressed as micromolar
PLK1, sequence (P53350 whole entry, species assumed): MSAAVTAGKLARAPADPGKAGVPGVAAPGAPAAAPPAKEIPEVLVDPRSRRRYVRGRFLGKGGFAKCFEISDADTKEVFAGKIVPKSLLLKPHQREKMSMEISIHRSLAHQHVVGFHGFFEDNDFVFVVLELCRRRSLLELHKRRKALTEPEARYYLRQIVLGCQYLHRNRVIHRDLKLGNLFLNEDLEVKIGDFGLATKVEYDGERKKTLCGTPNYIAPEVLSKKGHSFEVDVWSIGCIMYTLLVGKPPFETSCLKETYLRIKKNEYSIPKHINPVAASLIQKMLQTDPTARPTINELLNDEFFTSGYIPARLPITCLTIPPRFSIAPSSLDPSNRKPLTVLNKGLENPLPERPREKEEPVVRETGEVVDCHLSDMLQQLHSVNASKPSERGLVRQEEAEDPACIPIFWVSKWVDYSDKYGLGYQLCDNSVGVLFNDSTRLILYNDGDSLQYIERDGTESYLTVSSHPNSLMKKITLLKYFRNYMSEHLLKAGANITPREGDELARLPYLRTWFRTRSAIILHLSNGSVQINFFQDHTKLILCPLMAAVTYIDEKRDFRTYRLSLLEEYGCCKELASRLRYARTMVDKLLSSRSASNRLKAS
Description: (§1) The inhibition of the kinase activity is determined by measuring the phosphorylation of its substrate peptide.
The assay is carried out in a final volume of 40 μl; all the reagents are prepared in a buffer: • 50 mM HEPES pH 7.5 • 0.03% triton X100 • 10 mM MgCl2 • 5% Glycerol • 1 mM DTT 10 μl of the 10-times concentrated inhibitor are added to 5 μl of enzyme (75 ng final concentration), and 5 μl of peptide (1 μM final concentration), then 2.5 μl of incubation buffer containing 40 μM ATP and 2.5 μl of radiolabeled ATP, [^33P]ATP (500 nCi), are added. After incubation for 15 minutes at ambient temperature, 10 μl of incubation buffer containing 192 nM of substrate. […] Reference method for broth dilution antifungal susceptibility testing of yeasts. Approved Standard M27-A. NCCLS, Villanova, Pa.); the minimum concentration with which a visible decrease is observed in the cloudiness of the cell growth (at least 80% compared to a control without product) is the Minimum Inhibitory Concentration (MIC) of the antifungal agent with respect to the strain tested.

GSK3beta = GSK3beta (Homo sapiens, UniProt P49841); experiment: Assay for inhibition of GSK3beta activity; details: [33P]ATP; read-out: IC50s expressed as micromolar
GSK3beta, sequence (P49841 whole entry, species assumed): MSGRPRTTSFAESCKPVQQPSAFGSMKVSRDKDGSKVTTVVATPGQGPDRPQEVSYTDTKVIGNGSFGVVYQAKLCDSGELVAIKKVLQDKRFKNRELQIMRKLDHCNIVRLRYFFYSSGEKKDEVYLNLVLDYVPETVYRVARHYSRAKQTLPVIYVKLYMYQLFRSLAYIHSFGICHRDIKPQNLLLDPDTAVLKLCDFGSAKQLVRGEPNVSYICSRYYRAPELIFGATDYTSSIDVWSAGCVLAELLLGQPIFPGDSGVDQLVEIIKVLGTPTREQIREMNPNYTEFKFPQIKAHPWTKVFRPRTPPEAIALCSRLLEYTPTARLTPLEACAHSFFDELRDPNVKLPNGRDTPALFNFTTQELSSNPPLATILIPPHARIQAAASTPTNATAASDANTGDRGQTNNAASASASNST
Description: as §1
The assay is carried out in a final volume of 40 μl; all the reagents are prepared in a buffer: • 50 mM HEPES pH 7.5 • 0.03% triton X100 • 10 mM MgCl2 • 5% Glycerol • 1 mM DTT 10 μl of the 10-times concentrated inhibitor are added to 5 μl of enzyme (20 ng final concentration), and 5 μl of peptide (1 μM final concentration) then 2.5 μof incubation buffer containing 16 μM ATP and 2.5 μl of radiolabeled ATP, [^33P]ATP (50 nCi) are added. After incubation for 15 minutes at ambient temperature, 10 μl of incubation buffer containing 1 μM of substrate.

[1] = molecular target: Cyclin Dependent kinase 2 (CDK2) (Homo sapiens, UniProt P24941); experiment: Assay for inhibition of CDK2 activity; details: [33P]ATP, read-out: percentage inhibition at 20 μM
Description: The inhibition of the kinase activity of Cyclin Dependent kinase 2 (CDK2) is determined by measuring the phosphorylation of its substrate peptide.
The assay is carried out in a final volume of 50 μl.
The incubation buffer as follows:
• 50 mM Hepes/NaOH pH 7.5 • 10 mM MgCl2 • 1 mM DTT 5 μl of the 10-times concentrated inhibitor are added to 25 μl of incubation buffer containing 0.8 U/μL final concentration of the enzyme; 10 μL of incubation buffer containing 0.0025 mg/ml of peptide substrate are then added and, finally, 10 μL of incubation buffer containing 2 mM ATP and radiolabeled ATP, [^33P]ATP (0.25 μCi), are added. The reaction is stopped after incubation for 10 minutes at 37° C. • Results obtained expressed as percentage inhibition at 20 μM • Example 2 97% • Example 27 97% • Example 30 99% 4) Assay for Inhibition of CDK1 Activity

Abl kinase = experiment: Assay for inhibition of Abl activity; details: fluorescence polarization
Description: The inhibition of the kinase activity is determined by fluorescence polarization, the Abl kinase phosphorylates a peptide detected by adding an anti-phosphopeptide antibody coupled to a fluorescent label.
The assay is carried out in a final volume of 50 μl; all the reagents are prepared in a buffer: • 20 mM Hepes/NaOH pH 7.5 • 5 mM MgCl2 • 100 μM Na2VO4 • 1 mM DTT • 100 μM EDTA/NaOH • 0.01% Brij35 5 μl of the 10-times concentrated inhibitor are added to 25 μl of enzyme (1000 U/ml final concentration), (Calbiochem ref 102555). After incubation for 5 minutes at ambient temperature, 10 μL of PolyGT (400 ng/ml final concentration) and 10 μL of ATP (5 μM final concentration) are added. The detection is carried out after incubation for 15 minutes at 30° C. • Results obtained expressed as percentage inhibition at 20 μM • Example 24 100% • Example 2 100% • Example 32 100% 6) Assay for Inhibition of ZAP Kinase Activity

SRC kinase = molecular target: T1, SRC kinase (Homo sapiens, UniProt P12931); experiment: Assay for inhibition of SRC kinase activity; details: fluorescence polarization, read-out: percentage inhibition at 20 μM
T1 construct: purchased Upstate Biotechnology 14-117
T1 sequence (P12931 whole entry): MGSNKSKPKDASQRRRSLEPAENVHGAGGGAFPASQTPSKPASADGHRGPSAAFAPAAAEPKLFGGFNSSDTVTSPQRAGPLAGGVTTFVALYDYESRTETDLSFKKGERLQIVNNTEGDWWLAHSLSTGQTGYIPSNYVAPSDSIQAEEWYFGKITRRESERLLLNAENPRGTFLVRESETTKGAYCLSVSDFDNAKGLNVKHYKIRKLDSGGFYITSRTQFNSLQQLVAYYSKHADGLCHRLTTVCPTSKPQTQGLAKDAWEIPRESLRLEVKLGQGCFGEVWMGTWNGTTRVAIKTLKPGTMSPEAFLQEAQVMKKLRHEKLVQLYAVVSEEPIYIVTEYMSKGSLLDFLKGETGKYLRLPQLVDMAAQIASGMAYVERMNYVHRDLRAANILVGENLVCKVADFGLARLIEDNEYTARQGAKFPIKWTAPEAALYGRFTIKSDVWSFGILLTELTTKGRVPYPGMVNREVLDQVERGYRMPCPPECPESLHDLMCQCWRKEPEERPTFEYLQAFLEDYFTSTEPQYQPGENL
Description: 2) Assay for Inhibition of SRC Kinase Activity
The inhibition is determined by fluorescence polarization, the […] kinase phosphorylates a peptide detected by adding an anti-phosphopeptide antibody coupled to a fluorescent label.
The assay is carried out in a final volume of 50 μl; all the reagents are prepared in a buffer: • 25 mM HEPES/NaOH pH 7.6 • 5 mM MgCl2 • 2 mM MnCl2 • 50 μM Na2VO4 5 μl of the 10-times concentrated inhibitor are added to 25 μl of enzyme (12 U/ml final concentration), (Upstate Biotechnology ref 14-117). After incubation for 5 minutes at ambient temperature, 10 μl of PolyGluTyr 4/1 (150 ng/ml final concentration) and 10 μl of ATP (5 μM final concentration) are added. The detection is carried out after incubation for 20 minutes at ambient temperature. • Results obtained expressed as percentage inhibition at 20 μM • Example 8 98% • Example 15 99% • Example 20 99% • Example 24 99% • Example 27 95% • Example 30 99% • Example 32 100% • Example 38 95% 3) Assay for Inhibition of CDK2 Activity

ZAP kinase = molecular target: T2, ZAP kinase (Homo sapiens, UniProt P43403); experiment: Assay for inhibition of ZAP kinase activity; details: fluorescence polarization, read-out: percentage inhibition at 20 μM
T2 construct: purchased Panvera P2782
T2 sequence (P43403 1-619): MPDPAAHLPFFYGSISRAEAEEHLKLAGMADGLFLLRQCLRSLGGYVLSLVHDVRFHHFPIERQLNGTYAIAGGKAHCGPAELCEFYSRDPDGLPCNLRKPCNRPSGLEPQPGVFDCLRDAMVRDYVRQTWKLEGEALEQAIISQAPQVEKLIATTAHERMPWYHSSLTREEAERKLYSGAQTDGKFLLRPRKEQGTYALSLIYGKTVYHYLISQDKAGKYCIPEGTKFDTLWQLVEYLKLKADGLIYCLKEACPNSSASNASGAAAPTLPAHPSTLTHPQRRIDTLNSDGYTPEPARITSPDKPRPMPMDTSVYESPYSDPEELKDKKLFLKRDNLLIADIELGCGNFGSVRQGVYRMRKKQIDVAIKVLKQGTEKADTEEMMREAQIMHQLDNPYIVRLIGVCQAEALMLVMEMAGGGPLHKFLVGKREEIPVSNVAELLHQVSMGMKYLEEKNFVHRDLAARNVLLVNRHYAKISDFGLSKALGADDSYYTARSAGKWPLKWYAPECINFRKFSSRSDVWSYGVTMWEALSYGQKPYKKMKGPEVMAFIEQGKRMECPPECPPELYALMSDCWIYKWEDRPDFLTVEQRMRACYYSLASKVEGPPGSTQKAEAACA
Description: The inhibition of the kinase activity is determined by fluorescence polarization, the ZAP kinase phosphorylates a peptide detected by adding an anti-phosphopeptide antibody coupled to a fluorescent label.
The assay is carried out in a final volume of 50 μl; all the reagents are prepared in a buffer: • 20 mM Tris/HCl pH 7.7 • 7 mM MnCl2 • 50 μM Na2VO4 5 μl of the 10-times concentrated inhibitor are added to 25 μl of enzyme (0.7 μg/ml final concentration) (Panvera ref P2782). After incubation for 5 minutes at ambient temperature, 10 μl of PolyGT (300 ng/ml final concentration) and 10 μl of ATP (0.25 μM final concentration) are added. The detection is carried out after incubation for 15 minutes at ambient temperature. • Results obtained expressed as percentage inhibition at 20 μM • Example 8 98% • Example 20 95% • Example 24 96% 7) Assay for Inhibition of Casein Kinase II Activity

[2] = CaCiv1 with Cdk2 substrate, [33P]ATP, 30 min ambient temperature, read-out: IC50 as micromolar

CaCiv1, sequence (A0A1D8PH53 entry or part of it): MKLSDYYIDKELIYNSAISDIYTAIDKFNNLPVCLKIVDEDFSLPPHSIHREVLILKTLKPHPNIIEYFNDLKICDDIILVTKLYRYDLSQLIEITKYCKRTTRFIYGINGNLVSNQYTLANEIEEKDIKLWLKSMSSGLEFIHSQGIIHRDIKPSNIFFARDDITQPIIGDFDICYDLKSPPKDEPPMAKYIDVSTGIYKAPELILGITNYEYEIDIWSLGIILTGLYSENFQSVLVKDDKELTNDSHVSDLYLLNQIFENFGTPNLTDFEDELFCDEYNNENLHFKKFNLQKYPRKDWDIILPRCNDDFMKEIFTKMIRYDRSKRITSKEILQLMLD

| Compound | IC50 (CaCiv1; [2]) [µM] | IC50 (JNK3 kinase) [µM] | IC50 (PLK1) [µM] | IC50 (GSK3beta) [µM] | percentage inhibition at 20 μM (Abl kinase) [%] | further results |
| --- | --- | --- | --- | --- | --- | --- |
| Trans-N-[6-(5,6-dichloro-2,3-dihydro-1H-indol-1-yl)-9H-purin-2-yl]-1,4-cyclohexanediamine dihydrochloride [Example 1] | 0.8 | 0.29 | 0.21 |  |  |  |
| Cl.Cl.N[C@H]1CC[C@H](Nc2nc(-n3cnc4ccccc43)c3nc[nH]c3n2)CC1 [Example 2, Trans-N-[6-(1H-benzimidazol-1-yl)-9H-purin-2-yl]-1,4-cyclohexanediamine dihydrochloride] |  |  |  | 0.6 | 100 | inhibition at 20 µM [1]: 97%; IC50 (CaCiv1): 0.5 µM |
| OCC(CO)Nc1nc(-n2cnc3ccccc32)c2nc[nH]c2n1 [Example 18, 2-[[6-(1H-benzimidazol-1-yl)-9H-purin-2-yl]amino]-1,3-propanediol] | 3.9 |  | 0.16 |  |  |  |
| O[C@H]1CC[C@H](Nc2nc(-n3cnc4ccccc43)c3nc[nH]c3n2)CC1 [Example 24, Trans-4-[[6-(1H-benzimidazol-1-yl)-9H-purin-2-yl]amino]cyclohexanol] | 0.39 |  |  |  | 100 | inhibition at 20 µM (SRC kinase): 99%; inhibition at 20 µM (ZAP kinase): 96% |
| CC1Cc2ccccc2N1c1nc(N[C@H]2CC[C@H](N)CC2)nc2[nH]cnc12 (stereo partly drawn) [Example 26, dihydrochloride] |  | 0.31 |  | 1.3 |  |  |
